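These data come from cells grown in 96-well plates and exposed to compound for 48 hours at five concentrations. Abbreviation: GI50, concentration required for 50% inhibition of growth.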 The source made the active and inactive calls. Rule as the data show it: active = GI50 up to about 1.1 µM and inactive = higher. Positions of bridges follow the written chain, without caps; N, C: chain ends. Non-standard residues stand in square brackets, D forms with d. Residues, ends and D or L forms follow the SMILES beside them. ξ: configuration not given here. *: point of attachment. X28 = O=C(/C=C/C=C/C=C/C=C/C=C/C(=O)*)NC1=C(O)CCC1=O; Pro(4R-Me) = C[C@H]1CN[C@H](C(=O)O)C1; NMeA = CN[C@@H](C)C(=O)O; ξF = NC(Cc1ccccc1)C(=O)O; ξA = CC(N)C(=O)O
Experiments:
Experiment in all cases: NCI-60 cell line screen, 48 h
BT-549 = tested on: BT-549
NCI-H460 = tested on: NCI-H460
M14 = tested on: M14
SR = tested on: SR
HOP-92 = tested on: HOP-92
SNB-19 = tested on: SNB-19
Hs-578T = tested on: Hs-578T
HCC 2998 = tested on: HCC 2998
RPMI-8226 = tested on: RPMI-8226
U-251 = tested on: U-251
A549 = tested on: A549
786-0 = tested on: 786-0
EKVX = tested on: EKVX
SF-295 = tested on: SF-295
MDA-MB-231 = tested on: MDA-MB-231
IGROV-1 = tested on: IGROV-1
SNB-75 = tested on: SNB-75
RXF 393 = tested on: RXF 393
OVCAR-4 = tested on: OVCAR-4
TK-10 = tested on: TK-10

SMILES	GI50 (BT-549)	GI50 (NCI-H460)	GI50 (M14)	GI50 (SR)	GI50 (HOP-92)	GI50 (SNB-19)	GI50 (Hs-578T)	GI50 (HCC 2998)	GI50 (RPMI-8226)	GI50 (U-251)	GI50 (A549)	GI50 (786-0)	GI50 (EKVX)	GI50 (SF-295)	GI50 (MDA-MB-231)	GI50 (IGROV-1)	GI50 (SNB-75)	GI50 (RXF 393)	GI50 (OVCAR-4)	GI50 (TK-10)
COc1cc(OC)c(-c2oc3ccccc3c(=O)c2O)c(OC)c1	1.67 µM (inactive)	3.21 µM (inactive)	2.55 µM (inactive)	3.69 µM (inactive)	8.17 µM (inactive)	> 57.1 µM (inactive)	2.39 µM (inactive)	0.586 µM (active)	4.28 µM (inactive)	3.84 µM (inactive)	4.9 µM (inactive)	13.4 µM (inactive)	39.4 µM (inactive)	2.44 µM (inactive)	> 20.7 µM (inactive)	4.37 µM (inactive)	6.01 µM (inactive)	2.43 µM (inactive)	0.237 µM (active)	> 100 µM (inactive)
CN(C)CCC(=O)N1C/C(=C/c2ccccc2)C(=O)/C(=C\c2ccccc2)C1	0.883 µM (active)	2.33 µM (inactive)	1.91 µM (inactive)	0.386 µM (active)	7.11 µM (inactive)	2.48 µM (inactive)	3.55 µM (inactive)	1.06 µM (active)	0.134 µM (active)	0.662 µM (active)	4.7 µM (inactive)	1.49 µM (inactive)	3.78 µM (inactive)	2.93 µM (inactive)	0.735 µM (active)	2.59 µM (inactive)	4.74 µM (inactive)	2.11 µM (inactive)	2.17 µM (inactive)	8.15 µM (inactive)
Oc1cccc2c(Br)ccnc12	8.93 µM (inactive)	3.57 µM (inactive)	1.98 µM (inactive)	0.378 µM (active)	5.71 µM (inactive)	7.71 µM (inactive)	8.55 µM (inactive)	14.7 µM (inactive)	0.665 µM (active)	2.28 µM (inactive)	4.34 µM (inactive)	17.1 µM (inactive)	2.88 µM (inactive)	1.46 µM (inactive)	2.75 µM (inactive)	2.12 µM (inactive)	7.59 µM (inactive)	4.65 µM (inactive)	2.55 µM (inactive)	32.7 µM (inactive)
O=C(O)CCC(=O)c1ccc2ccc3cccc4ccc1c2c34	63.2 µM (inactive)	39.3 µM (inactive)	> 100 µM (inactive)	45.7 µM (inactive)	> 100 µM (inactive)	92.9 µM (inactive)	> 100 µM (inactive)	21.4 µM (inactive)	63 µM (inactive)	48.5 µM (inactive)	62.2 µM (inactive)	68.9 µM (inactive)	58.2 µM (inactive)	70.6 µM (inactive)	64 µM (inactive)	70.3 µM (inactive)	> 100 µM (inactive)	46.5 µM (inactive)	> 100 µM (inactive)	49.1 µM (inactive)
CN(C)[C@@H]1C(O)=C(C(=O)NCNc2nc3[nH]nnc3c(=O)[nH]2)C(=O)[C@@]2(O)C(O)=C3C(=O)c4c(O)cccc4[C@@](C)(O)[C@H]3C[C@@H]12	6.7 µM (inactive)	24.3 µM (inactive)	0.557 µM (active)	0.312 µM (active)	1.3 µM (inactive)	86.1 µM (inactive)	2 µM (inactive)	64 µM (inactive)	0.272 µM (active)	2.15 µM (inactive)	55.3 µM (inactive)	0.637 µM (active)	12.4 µM (inactive)	4.47 µM (inactive)	0.883 µM (active)	15.9 µM (inactive)	11.2 µM (inactive)	0.518 µM (active)	8.63 µM (inactive)	2.3 µM (inactive)
O=C1CSC(=S)N1/N=C/c1ccc(Cl)c([N+](=O)[O-])c1	19.8 µM (inactive)	41.3 µM (inactive)	18.8 µM (inactive)	22.5 µM (inactive)	27.6 µM (inactive)	22.9 µM (inactive)	37.8 µM (inactive)	11.9 µM (inactive)	21.5 µM (inactive)	18.5 µM (inactive)	46.2 µM (inactive)	38.6 µM (inactive)	27.9 µM (inactive)	24.8 µM (inactive)	21.3 µM (inactive)	36.7 µM (inactive)	45 µM (inactive)	33.8 µM (inactive)	22.5 µM (inactive)	53.5 µM (inactive)
CCOC(=O)c1cn2c(n1)sc1cc(C)c(C)cc12	28.7 µM (inactive)	42.8 µM (inactive)	26.5 µM (inactive)	6.68 µM (inactive)	25.4 µM (inactive)	20 µM (inactive)	27.6 µM (inactive)	66.1 µM (inactive)	25.6 µM (inactive)	18.6 µM (inactive)	18.9 µM (inactive)	19 µM (inactive)	22.3 µM (inactive)	32 µM (inactive)	24.3 µM (inactive)	23 µM (inactive)	22.6 µM (inactive)	22.1 µM (inactive)	> 100 µM (inactive)	24.6 µM (inactive)
CC1NC(=O)[C@H](C)N(C)C(=O)[C@@H]2CCCN2C(=O)[C@@H](NC(=O)C(Cc2ccccc2)NC(=O)/C=C/C=C/C=C/C=C/C=C/C(=O)NC2=C(O)CCC2=O)COC(=O)[C@@H]2C[C@@H](C)CN2C1=O (stereo partly drawn) (X28-[ξF]SP[NMeA][ξA][Pro(4R-Me)]; ester 2-C)	> 100 µM (inactive)	> 100 µM (inactive)	> 100 µM (inactive)	> 100 µM (inactive)	> 100 µM (inactive)	> 100 µM (inactive)	> 100 µM (inactive)	> 100 µM (inactive)	> 100 µM (inactive)	> 100 µM (inactive)	> 100 µM (inactive)	> 100 µM (inactive)	> 100 µM (inactive)	> 100 µM (inactive)	> 100 µM (inactive)	> 100 µM (inactive)	> 100 µM (inactive)	> 100 µM (inactive)	> 100 µM (inactive)	54.8 µM (inactive)
NS(=O)(=O)c1ccc(NC(=O)c2ccc3nc4ccccc4c(Nc4ccc(S(N)(=O)=O)cc4)c3c2)cc1	> 100 µM (inactive)	8.75 µM (inactive)	> 100 µM (inactive)	> 100 µM (inactive)	> 100 µM (inactive)	42.1 µM (inactive)	> 100 µM (inactive)	> 100 µM (inactive)	> 100 µM (inactive)	62.8 µM (inactive)	> 100 µM (inactive)	> 100 µM (inactive)	> 100 µM (inactive)	> 100 µM (inactive)	> 100 µM (inactive)	> 100 µM (inactive)	> 100 µM (inactive)	> 100 µM (inactive)	> 100 µM (inactive)	> 100 µM (inactive)
